# Reference: publication PMC11318018 (ACS Medicinal Chemistry Letters, 2024)
# Biological target: HiBiT-RR BRD4 (Homo sapiens, UniProt O60885)
# Assay: Kinetic degradation of HiBiT-RR BRD4 CRISPR knock-in in HEK293 cells
# Format: cell-based
smiles,measurement,value
Cc1ncsc1-c1ccc(CNC(=O)[C@@H]2C[C@@H](O)CN2C(=O)[C@@H](NC(=O)COCCOCCOCCNC(=O)C[C@@H]2N=C(c3ccc(Cl)cc3)c3c(sc(C)c3C)-n3c(C)nnc32)C(C)(C)C)cc1 [MZ1],DC50 or Dmax difference HiBiT-KK vs HiBiT-RR BRD4,no significant DC50 or Dmax difference
